In ChEMBL document CHEMBL5620413, “Novel pterostilbene derivatives ameliorate heart failure by reducing oxidative stress and inflammation through regulating Nrf2/NF-κB signaling pathway” (Eur J Med Chem, 2023):
Calls of active or inactive are those of the source. No cut-off for these calls is given here.

Tested on: RAW264.7
Assay: Antiinflammatory activity in mouse RAW264.7 cells assessed as decrease in LPS-induced NO production at 10 uM preincubated for 1 hr followed by LPS treatment for 24 hrs by Griess reagent based assay
Assay type: functional, cell-based
Conditions: time 25.0 hrs

SMILES | Activity
C=CCOc1ccc(/C=C/c2cc(OC)cc(OC)c2/C=C/C(=O)c2cccc(Br)c2)cc1 | Active
COCCCCOc1ccc(/C=C/c2cc(OC)cc(OC)c2C2CC(C)=NN2C(C)=O)cc1 (stereo not drawn) | Active
COc1cc(/C=C/c2ccc(OCCOc3ccccc3)cc2)c(C2CC(C)=NN2C(C)=O)c(OC)c1 (stereo not drawn) | Active
C=CCOc1ccc(/C=C/c2cc(OC)cc(OC)c2/C=C/C(=O)c2cccc(OC)c2)cc1 | Active
CCCOc1ccc(/C=C/c2cc(OC)cc(OC)c2/C=C/C(=O)c2cccc(C)c2)cc1 | Active
CCC(C)Oc1ccc(/C=C/c2cc(OC)cc(OC)c2C2CC(C)=NN2C(C)=O)cc1 (stereo not drawn) | Active
COCCOc1ccc(/C=C/c2cc(OC)cc(OC)c2/C=C/C(=O)c2ccccc2)cc1 | Active
COCCOc1ccc(/C=C/c2cc(OC)cc(OC)c2/C=C/C(=O)c2cccc(OC)c2)cc1 | Active
COc1cc(/C=C/c2ccc(OCC3CCCCC3)cc2)c(C2CC(C)=NN2C(C)=O)c(OC)c1 (stereo not drawn) | Active
COCCCCOc1ccc(/C=C/c2cc(OC)cc(OC)c2/C=C/C(=O)c2cccc(C)c2)cc1 | Active
C=CCOc1ccc(/C=C/c2cc(OC)cc(OC)c2/C=C/C(=O)c2cccc(C)c2)cc1 | Active
CCCCOc1ccc(/C=C/c2cc(OC)cc(OC)c2/C=C/C(=O)c2cccc(C)c2)cc1 | Active
CCCOc1ccc(/C=C/c2cc(OC)cc(OC)c2C2CC(C)=NN2C(C)=O)cc1 (stereo not drawn) | Active
C=CCOc1ccc(/C=C/c2cc(OC)cc(OC)c2/C=C/C(=O)c2ccccc2)cc1 | Active
COc1cc(/C=C/c2ccc(OCc3ccc(F)cc3)cc2)c(/C=C/C(=O)c2cccc(C)c2)c(OC)c1 | Active
C=CCOc1ccc(/C=C/c2cc(OC)cc(OC)c2C2CC(C)=NN2C(C)=O)cc1 (stereo not drawn) | Active
COCCOc1ccc(/C=C/c2cc(OC)cc(OC)c2/C=C/C(=O)c2cccc(C)c2)cc1 | Active
CCCCOc1ccc(/C=C/c2cc(OC)cc(OC)c2/C=C/C(=O)c2cccc(Br)c2)cc1 | Active
